# Results from patent US8889848B2, “HCV genotype 3 replicons” (priority 2011, dated 2014).
# Like-named read-outs stand apart in the source and are kept apart here.
# Tests used:
# Assay type in all cases: cell-based, HCV
# [1] = system: Pi-Rluc-GT3a-P89L/A166T replicon; experiment: Transient replicon antiviral assay, Pi-Rluc-GT3a-P89L/A166T in 1C cells; settings: for GT3a(P89L/A166T)/Ib EC50 Ratio: EC50 GT3a P89L/A166T divided by EC50 GT1b; for EC50: transient transfection, 1C cells, 3 days, renilla luciferase, mean of at least two experiments
# Method: (§1) Replicon RNA were electroporated into 1C cells as described above. After transfection, cells were quickly transferred into 100 mL of pre-warmed culture medium, and 90 μl was seeded in 384-well plates at a density of 2,000 cells/well. Cells were treated with three-fold serial drug dilutions at 10 different concentrations. Cell plates were incubated at 37° C. for 3 days, after which culture medium was removed and cells were assayed for luciferase activity as markers for replicon levels. Luciferase expression was quantified using a commercial luciferase assay (Promega). Luciferase levels were converted into percentages relative to the levels in the untreated controls (defined as 100%), and data were fitted to the logistic dose-response equation y=a/[1+(x/b)^c] using XLFit4 software (IDBS, Emeryville, Calif.).
# (§2) To investigate antiviral activity against genotype 3a, five different classes of HCV inhibitors were tested in a transient assay of the genotype 3a Pi-Rluc replicon: NS3 protease, NS5A, NS5B active site, NS5B non-active site, and host factor inhibitors. A standard genotype 1b Pi-Rluc replicon was tested in parallel. The transient replicon replication assays were performed in 1C cells to minimize the potential influence of host cell difference on compound antiviral activities. EC50 values against both genotype 1b and genotype 3a replicons were successfully generated for all inhibitors using a high-throughput 384-well assay measuring Rluc activity (Table 10).
# (§3) Five different classes of HCV inhibitors as listed in the first column were evaluated for their antiviral activities against GT1b and GT3a Pi-Rluc replicon in a transient transfection high-throughput 384-well format by measuring renilla luciferase activity. Data presented in the table represent the mean of at least two independent experiments.
# [2] = system: Pi-Rluc-GT3a-P89L/K583E replicon; experiment: Transient replicon antiviral assay, Pi-Rluc-GT3a-P89L/K583E in 1C cells; settings: for GT3a(P89L/K583E)/Ib EC50 Ratio: EC50 GT3a P89L/K583E divided by EC50 GT1b; for EC50: transient transfection, 1C cells, 3 days, renilla luciferase, mean of at least two experiments
# Method: as §1, §2, §3
# [3] = system: genotype 3a Pi-Rluc replicon; experiment: Transient genotype 3a Pi-Rluc replicon assay, summary over both GT3a replicons; settings: for EC50: read-out: EC50 values against genotype 3a
# Method: as §1, §2
# [4] = system: genotype 1b Pi-Rluc replicon; experiment: Transient replicon antiviral assay, Pi-Rluc-GT1b in 1C cells; settings: transient transfection, 3 days, renilla luciferase, mean of at least two experiments
# Method: as §1, §2, §3
Structure (SMILES),GT3a(P89L/A166T)/Ib EC50 Ratio [1],"EC50 ([1]; Hepatitis C virus, GT3A, 72 h)",GT3a(P89L/K583E)/Ib EC50 Ratio [2],"EC50 ([2]; Hepatitis C virus, GT3A, 72 h)",EC50 ([3]; Hepatitis C virus),fold less active (less potent) against genotype 3a versus genotype 1b ([3]; transient Pi-Rluc replicons),"EC50 ([4]; Hepatitis C virus, 72 h)",EC50 [1],EC50 [2],EC50 [4],EC50 ([3]; range over the two GT3a Pi-Rluc replicons),fold more active against genotype 3a compared with genotype 1b ([3]; transient Pi-Rluc replicons),potency against genotype 1b and 3a replicons compared (in words) ([3]; transient Pi-Rluc replicons)
"CC(C)(C)NC(=O)N[C@H](C(=O)N1C[C@H]2[C@@H]([C@H]1C(=O)NC(CC1CCC1)C(=O)C(N)=O)C2(C)C)C(C)(C)C (stereo partly shown) [Boceprevir, boceprevir]",2.44,460 nM,1.45,273 nM,–,–,–,–,–,–,–,–,–
COC(=O)N[C@H](C(=O)N1CCC[C@H]1c1nc(-c2ccc(-c3ccc(-c4c[nH]c([C@@H]5CCCN5C(=O)[C@@H](NC(=O)OC)C(C)C)n4)cc3)cc2)c[nH]1)C(C)C [BMS-790052],11,0.31 nM,15,0.45 nM,0.31 to 0.45 nM,11 fold,0.03 nM,–,–,–,–,–,–
CC[C@@H]1C[C@]1(NC(=O)[C@@H]1C[C@@H](Oc2cc(-c3csc(NC(C)C)n3)nc3c(Cl)c(OCCN4CCOCC4)ccc23)CN1C(=O)[C@@H](NC(=O)O[C@@H]1C[C@@H]2C[C@@H]2C1)C(C)(C)C)C(=O)O [GS-9451],173,–,97,–,–,–,–,1650 nM,921 nM,10 nM,–,–,–
CC(C)OC(=O)[C@H](C)N[P@](=O)(OC[C@H]1O[C@@H](n2ccc(=O)[nH]c2=O)[C@](C)(F)[C@@H]1O)Oc1ccccc1 [GS-7977],0.31,–,0.15,–,–,–,–,12 nM,5.8 nM,40 nM,–,–,–
C=C[C@@H]1C[C@]1(NC(=O)[C@@H]1C[C@@H]2CN1C(=O)[C@H](C(C)(C)C)NC(=O)O[C@@H]1C[C@H]1CCCCCc1nc3ccc(OC)cc3nc1O2)C(=O)NS(=O)(=O)C1CC1 [MK-5172],74,60 nM,28,23 nM,–,–,0.81 nM,–,–,–,–,–,–
CC1=CC[C@H](C(=O)N(c2cc(C#CC(C)(C)C)sc2C(=O)O)[C@H]2CC[C@](O)(CO[C@H]3CCOC3)CC2)CC1 [GS-9669],61,–,33,–,–,~60 fold,–,230 nM,125 nM,3.8 nM,–,–,–
COC(=O)N[C@H](C(=O)N1CC2(CC2)C[C@H]1c1nc(-c2ccc3c(c2)C(F)(F)c2cc(-c4ccc5[nH]c([C@@H]6[C@H]7CC[C@H](C7)N6C(=O)[C@@H](NC(=O)OC)C(C)C)nc5c4)ccc2-3)c[nH]1)C(C)C [GS-5885],22370,–,9758,–,–,approximately 10.000 fold,–,92 nM,40 nM,0.0041 nM,40 to 92 nM,–,–
CN(C)CCN(C)[C@H]1COc2ccccc2-c2c(C3CCCCC3)c3ccc(C(=O)O)cc3n2C1 [MK-3281],0.47,277 nM,0.31,180 nM,–,–,587 nM,–,–,–,–,about 2 fold,–
Fc1ccccc1-c1nc2ccn(Cc3ccc(-c4ccc(C(F)(F)F)cc4C(F)(F)F)nn3)cc-2n1 [GS-9190],17,–,18,–,–,approximately 17 fold,–,42 nM,46 nM,3 nM,–,–,–
C/C=C/C[C@@H](C)[C@@H](O)[C@H]1C(=O)N[C@@H](CC)C(=O)N(C)[C@H](SCCN(C)C)C(=O)N(C)[C@@H](CC(C)(C)O)C(=O)N[C@@H](C(C)C)C(=O)N(C)[C@@H](CC(C)C)C(=O)N[C@@H](C)C(=O)N[C@H](C)C(=O)N(C)[C@@H](CC(C)C)C(=O)N(C)[C@@H](CC(C)C)C(=O)N(C)[C@@H](C(C)C)C(=O)N1C [SCY-635],1.2,78 nM,0.91,59 nM,–,–,65 nM,–,–,–,–,–,equivalent potency
CNC(=O)c1c(-c2ccc(F)cc2)oc2cc(N(CCO)S(C)(=O)=O)c(C3CC3)cc12 [HCV-796],0.14,2.8 nM,0.12,2.4 nM,–,–,20 nM,–,–,–,–,~7 fold,–
"CCC[C@H](NC(=O)[C@@H]1[C@H]2CCC[C@H]2CN1C(=O)[C@@H](NC(=O)[C@@H](NC(=O)c1cnccn1)C1CCCCC1)C(C)(C)C)C(=O)C(=O)NC1CC1 [Telaprevir, telaprevir]",1.6,650 nM,3.27,1330 nM,–,–,407 nM,–,–,–,–,–,–
COc1ccc2c(O[C@@H]3C[C@H]4C(=O)N[C@]5(C(=O)O)C[C@H]5/C=C\CCCCC[C@H](NC(=O)OC5CCCC5)C(=O)N4C3)cc(-c3csc(NC(C)C)n3)nc2c1 [BILN-2061],478,447 nM,102,95 nM,–,–,0.93 nM,–,–,–,–,–,–
"CCc1cc(CC[C@]2(C3CCCC3)CC(O)=C(Cc3nc4nc(C)cc(C)n4n3)C(=O)O2)cc(CC)n1 [Filibuvir, filibuvir]",17,2040 nM,7.4,895 nM,–,approximately 17 fold,121 nM,–,–,–,–,–,–
